Results taken from US20210261495A1, “COMPOSITIONS AND METHODS OF USING ITACONIC ACID DERIVATIVES” (ERGON PHARMACEUTICALS, LLC, priority 2018, published 2021).

System: C6-IRG1-9 rat glioma cells
Assay: C6-IRG1-9 rat glioma cell proliferation, CyQuant
Type: cell-based
Conditions: various concentrations, 48 hrs
Method: Tumor Cell Proliferation Assay. This assay was used to assess the anti-tumor properties of a therapeutic agent in vitro. In a typical proliferation assay, cells were cultured to near confluency in the appropriate media. Subsequently, the cells were trypsinized and plated onto 96-well plates at 2,000 or 5,000 cell per well. The cells were cultured for 48 to 96 hours in the presence or absence of the therapeutic agent. Cell proliferation was then determined using spectrophotometry (MTT assay, BrdU assay) or fluorimetry (Cyquant assay).
Inhibition of C6-IRG1-9 Rat Glioma cell proliferation. C6-IRG1-9 cells are rat C6 glioma cells that have been transfected to overexpress IRG1. Overexpression of IRG1 is maintained by culturing the cells in DMEM media containing 0.55 μg/mL puromycin. For the proliferation assays, the cells were plated onto a 96-well plate at a density of 2,000 cells/well. The cells were allowed to adhere overnight; they were subsequently treated with various concentrations of compounds of Formula (2) for 48 hrs. At the end of the incubation period, the number of cells is assessed using the CyQuant Cell Proliferation kit (Thermo Fisher) according to the manufacturer's instructions. The results, shown in FIG. 3, indicate that compounds of Formula (2) are able to reduce or abrogate growth of C6-IRG1-9 cells. In FIG. 3, cell proliferation is expressed as % Untreated Control, defined as: […]
where t is the number of cells present in a treated well at the end of the incubation period, c is the number of cells present in an untreated well at the end of the incubation period, and s is the initial number of cells in the wells prior to initiation of treatment.

SMILES: O=C(O)CC(=Cc1ccc(F)cc1)C(=O)O [Compound (5), 2-[(4-fluorophenyl)methylidene]butanedioic acid]
- proliferation of C6-IRG1-9 rat glioma cells: inhibition of proliferation

SMILES: CC(C)=C(CC(=O)O)C(=O)O [(3), 2-(propan-2-ylidene)butanedioic acid]
- proliferation of C6-IRG1-9 rat glioma cells: inhibition of proliferation

SMILES: O=C(O)CC(=Cc1ccccc1)C(=O)O [(4), 2-(phenylmethylidene)butanedioic acid]
- proliferation of C6-IRG1-9 rat glioma cells: inhibition of proliferation

SMILES: C=CCC(C(=O)O)/C(=C/c1ccc(F)cc1)C(=O)O (stereo not shown) [(7), 2-[(4-flurophenyl)methylidene]-3-(prop-2-ene-1-yl)butanedioic acid]
- proliferation of C6-IRG1-9 rat glioma cells: inhibition of proliferation
